The values that follow come from patent US20260240903A1, “USE OF TRIVALENT CHROMIUM IONS AND/OR METAL CHROMIUM IN PREPARATION OF DRUG FOR IMMUNOTHERAPY OF TUMORS” (SHENZHEN LUOHU PEOPLE'S HOSPITAL, priority 2023, published 2026).

Structures are written as SMILES.

Data set [1] concerns subcutaneous melanoma (B16F10 cells). As to the kind of experiment: Growth of subcutaneous melanoma in B16F10 tumor-bearing mice. Type of data set: in vivo. Conditions: B16F10 tumor-bearing C57BL/6 mice, vein injection twice at 4-day interval; BMS-202 0.1 mg/mouse, Cr^3+ 100 μg/mL 100 μL, 12 days. An excerpt:
A batch of SPF C57BL/6 mice (6 weeks old) were purchased from a company. B16F10 cells were selected as subcutaneous tumor model cells. 5×10^5 B16F10 cells were inoculated on a right side of a dorsal flank of each mouse and cultured for 13 days. When tumor volumes reached 100-200 mm^3, the modeling was successful. The obtained tumor-bearing mice can be used for a subsequent in vivo experiment. Animal experiments all comply with requirements for animal protection ethics and welfare.
The successfully constructed B16 tumor-bearing mice were divided into four groups: a CrCl3 experimental group (amount of chromium ions: 100 μg/mL, 100 μL), a BMS experimental group (0.1 mg/mouse), a CrCl3+BMS experimental group (100 μg/mL, 100 μL CrCl3+0.1 mg BMS/mouse) and a control group (normal saline, 100 μL) (n=3 for each group). On the first day, CrCl3, BMS and CrCl3+BMS were injected into veins of mice in different groups, respectively. […] Tumor growth was monitored every two days by a digital caliper with a tumor volume calculation formula of ½×L×W^2. On the 12th day of treatment, the mice were euthanatized.

The next data set has as its system macrophages (RAW264.7). As to the kind of experiment: Transwell detection of the promotion of macrophage migration by metal ions. The class given is cell-based, mouse. Conditions: for ability to promote the migration of macrophages: liver cancer cells in lower chamber, metal ions 0, 500, 1000, 2000 μM, RAW264.7 in upper chamber. From the text:
This example provides the establishment and validation of a platform for screening metal ions that promotes the migration of immune cells. A specific method is described below. • 1. Preparation of metal ions: metal compounds such as zinc chloride, potassium chloride, magnesium chloride, manganese chloride, anhydrous calcium chloride, aluminium sulfate (octadecahydrate), anhydrous copper(II) chloride, anhydrous iron(III) chloride, iron(II) chloride, chromium(III) chloride hexahydrate and anhydrous cobalt(II) chloride were prepared into solutions ranging from 0 μM to 2000 μM using normal saline, respectively. • 2. Preparation of BM-DCs (bone marrow-derived dendritic cells), RAW264.7 (mouse monocytic leukemia macrophage cells) and mouse spleen lymphocytes • (1) Acquisition of mouse BM-DCs: bone marrow was taken from hind limbs of […] mice, and treated with a red blood cell lysis buffer to remove red blood cells; bone marrow cells (4×10^6 cells) were cultured in a 10 cm culture dish, and 10% FBS, mercaptoethanol (2-ME, 0.8 ng/ml, Sigma) and mouse granulocyte-macrophage colony-stimulating factor (GM-CSF, 20 ng/mL, PeproTech) were added to a DMEM medium and cultured for 7 days; expression levels of CD11c, CD80 and CD86 in cells were detected using antibodies and a flow cytometer. • (2) Mouse macrophages RAW264.7: derived from a cell bank of the Chinese Academy of Sciences and cultured. • (3) Mouse spleen lymphocytes: spleens of C57BL/6 mice were acquired and filtered by a screen into single cells, treated with a red blood cell lysis buffer to remove red blood cells, and centrifuged with lymphocyte isolation solution to isolate the cells for in vitro culture. • 3. Transwell detection of the promotion of the migration of immune cells by metal ions
Liver cancer cells were placed in lower chambers (12 wells) of a Transwell plate, and the above metal ion solutions with different concentrations (0 μM, 500 μM, 1000 μM and 2000 μM) were added to the lower chambers, respectively. After 24 h, the BM-DCs, the RAW264.7 cells and the spleen lymphocytes were placed in upper chambers (2×10^4 cells/well) of the Transwell plate, respectively. The cells were co-cultured for a certain period of time, and nylon membranes of the chambers were taken and stained to observe the migration of the cells.

A further data set deals with RAW264.7 cells. As to the kind of experiment: CCK-8 assay of toxicity of metal ions. Type of data set: cell-based, mouse. Conditions: 0-200 μg/mL metal ions, 24 h. As for the experimental part: Toxicities of metal ions with different concentrations on RAW264.7 cells were quantified through a CCK-8 assay. Specific steps are as follows: RAW264.7 cells (2×10^4 cells/well, n=4) were inoculated in a 96-well plate, stayed for a whole night and cultured by media containing metal ions with different concentrations (0 μg/mL, 25 μg/mL, 50 μg/mL, 100 μg/mL and 200 μg/mL) for 24 h, respectively, and cell viability was measured through CCK-8.

For data set [2], the system named is MIP-1α secretion in RAW264.7 cells. As to the kind of experiment: ELISA of MIP-1α secretion in RAW264.7 cells. The note with it: Cr^3+ 0, 50, 100, 200 μg/mL, 48 h. Type of data set: cell-based, mouse. As for the experimental part:
(§1) Cr^3+ with different concentrations (0 μg/mL, 50 μg/mL, 100 μg/mL and 200 μg/mL) was co-incubated with RAW264.7 cells (1×10^6 cells/well) for 48 h. Cell supernatants and protein samples were collected, and various types of […] including MIP-la were detected through ELISA. The expression of various proteins in a PI3K/Akt/mTOR pathway was detected through protein immunoblotting.

For the next data set, the system named is PI3K/AKT/mTOR pathway. As to the kind of experiment: Protein immunoblotting of the PI3K/Akt/mTOR pathway in RAW264.7 cells. Type of data set: cell-based, mouse. As for the experimental part: as §1
For the next data set, the target named is IR tyrosine kinases (Homo sapiens, UniProt P06213). Conditions: background statement; cited from earlier work.
Data set [3] can be described thus: Stability of metal ions in vitro and in vivo. Type of data set: physicochemical.

Sequence of IR tyrosine kinases (P06213 28-1382): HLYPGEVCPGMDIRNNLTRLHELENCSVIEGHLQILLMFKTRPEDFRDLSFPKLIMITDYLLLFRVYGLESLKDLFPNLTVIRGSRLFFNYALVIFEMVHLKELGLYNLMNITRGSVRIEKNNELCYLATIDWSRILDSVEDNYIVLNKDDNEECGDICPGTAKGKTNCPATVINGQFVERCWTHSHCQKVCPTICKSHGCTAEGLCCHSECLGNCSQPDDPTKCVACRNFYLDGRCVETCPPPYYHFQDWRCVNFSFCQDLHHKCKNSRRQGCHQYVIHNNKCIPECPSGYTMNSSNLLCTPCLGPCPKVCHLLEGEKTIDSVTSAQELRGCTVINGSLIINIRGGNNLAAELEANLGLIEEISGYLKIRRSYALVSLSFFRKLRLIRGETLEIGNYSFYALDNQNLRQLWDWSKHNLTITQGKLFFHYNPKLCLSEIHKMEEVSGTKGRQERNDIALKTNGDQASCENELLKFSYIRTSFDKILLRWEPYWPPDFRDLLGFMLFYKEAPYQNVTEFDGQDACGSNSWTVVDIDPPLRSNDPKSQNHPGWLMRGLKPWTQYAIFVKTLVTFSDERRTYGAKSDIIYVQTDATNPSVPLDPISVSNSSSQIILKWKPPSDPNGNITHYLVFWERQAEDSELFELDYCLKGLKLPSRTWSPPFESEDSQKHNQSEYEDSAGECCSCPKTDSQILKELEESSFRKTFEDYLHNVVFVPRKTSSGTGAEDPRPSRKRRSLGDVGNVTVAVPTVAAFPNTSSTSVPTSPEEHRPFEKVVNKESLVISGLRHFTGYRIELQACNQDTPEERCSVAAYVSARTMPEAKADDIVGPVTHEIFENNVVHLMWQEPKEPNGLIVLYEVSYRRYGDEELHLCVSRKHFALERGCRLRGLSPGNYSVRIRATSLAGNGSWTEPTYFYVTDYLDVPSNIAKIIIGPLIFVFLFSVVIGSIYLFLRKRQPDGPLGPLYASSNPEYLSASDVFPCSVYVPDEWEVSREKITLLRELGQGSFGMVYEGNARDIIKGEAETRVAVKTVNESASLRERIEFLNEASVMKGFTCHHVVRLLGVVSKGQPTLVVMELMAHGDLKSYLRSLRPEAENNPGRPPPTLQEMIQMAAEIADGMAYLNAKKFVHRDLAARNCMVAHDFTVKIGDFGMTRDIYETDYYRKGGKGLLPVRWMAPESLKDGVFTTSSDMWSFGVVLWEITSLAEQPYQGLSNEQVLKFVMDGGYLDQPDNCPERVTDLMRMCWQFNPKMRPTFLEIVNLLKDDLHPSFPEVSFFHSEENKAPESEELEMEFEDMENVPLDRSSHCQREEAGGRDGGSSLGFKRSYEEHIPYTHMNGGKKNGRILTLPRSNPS

As for `COc1nc(OCc2cccc(-c3ccccc3)c2C)ccc1CNCCNC(C)=O` [BMS-202, reference compound], the “effect on tumor growth of subcutaneous melanoma” value in data set [1] is recorded as “no significant limiting effect on the tumor growth”.

In the case of `O.O.O.O.O.O.[Cl][Cr]([Cl])[Cl]` [Cr^3+, chromium(III) chloride hexahydrate], in the data set on macrophages (RAW264.7) (Cr^3+ between 0 μM and 2000 μM), the “migration promoting effect on macrophages” value was “significant migration promoting effect”. Moreover, the “ability to promote the migration of macrophages” value (“ability to promote the migration” for short) with macrophages (RAW264.7) was “have an ability to promote the migration of macrophages”. Further, in the data set on RAW264.7 cells, the “toxicity on RAW264.7 cells (cell viability, CCK-8)” value is listed as “good biocompatibility (low biological toxicity)”. The “effect on tumor growth of subcutaneous melanoma” value in data set [1] was “no significant limiting effect on the tumor growth”. Moreover, in data set [2], the “secretion of MIP-1α” value is “significantly increased”. Further, in the data set with PI3K/AKT/mTOR pathway, the “activation of the PI3K/AKT/mTOR pathway” value was “can activate the PI3K/AKT/mTOR pathway”. For the same compound, the “expression of AKT and phosphorylated AKT (pAKT)” value in the data set with PI3K/AKT/mTOR pathway (48 h) is given as “induces high expression”. In addition, the “enhancement of the activity of IR tyrosine kinases” value on IR tyrosine kinases is “six times”.

For `[Cl][Cu][Cl]` [Cu^2+, anhydrous copper(II) chloride, reference compound], the “ability to promote the migration” value in the data set with macrophages (RAW264.7) is listed as “have an ability to promote the migration of macrophages”. Besides, in the data set with RAW264.7 cells, the “toxicity on RAW264.7 cells (cell viability, CCK-8)” value is “relatively high cytotoxicity”.

With `[Cl][Fe][Cl]` [Fe^2+, iron(II) chloride, reference compound], the “ability to promote the migration” value with macrophages (RAW264.7) is reported as “have an ability to promote the migration of macrophages”. The “stability in vitro and in vivo” value in data set [3] was “poor stability in vitro and in vivo and is easily oxidized to Fe^3+”.
